Results taken from patent US9795810B2, “Propylene glycol/glycerin-based deodorant” (COLGATE-PALMOLIVE COMPANY, priority 2007, dated 2017).

Tested on: Corynebacterium minutissimum
Experiment: Zone of Inhibition test on inoculated agar plates
Format: cell-based
Conditions: for Zone of Inhibition (mm): from the edge of 2 cm disk, 0.2 g stick or approx. 0.6 g neat, 37° C., 48 hrs
Experimental: A commercially available regular Mennen Speed Stick (MSS) deodorant stick, an Ultimate Mennen Speed Stick deodorant stick (containing triclosan as a control) and the PG-free deodorant stick containing glycerin were tested with a Zone Of Inhibition test using 2 cm Webril® (Fiberweb, Gray Court, S.C.) cotton disks on inoculated plates. Also, as controls: water, neat (undiluted) PG and neat glycerin were tested.
Zone of Inhibition Test method: To the disks was added 0.2 g of the stick products or approximately 0.6 g (enough to just saturate the disk) of the neat controls. The disks were then inverted and placed face down on an inoculated agar plate. The agar plates were streaked beforehand (30 minutes) such that a bacterial lawn of Corynebacterium minutissimum at a concentration of 10^6/ml was created covering the entire plate surface. The plates were then incubated at 37° C. for 48 hrs.
Zones of inhibition were measured in millimeters (mm) from the edge of the disk. A greater zone equals increased bacterial growth inhibition.

Row | SMILES | Zone of inhibition result in words | Zone of Inhibition (mm)
1 | OCC(O)CO [Glycerin neat, glycerin] | small zone | 1
2 | CC(O)CO (stereo not drawn) [PG neat, propylene glycol] | – | 2.5
